Common to all, as to assay: Antimicrobial efficacy, challenge test in analogy to NF EN ISO11930
The subject of assay [1] is P. Acnes. In kind it is cell-based, Propionibacterium acnes. The procedure: (§1) The antimicrobial efficacy is assessed in analogy to the regulatory challenge test method (NF EN IS011930). Thus, a solution of 0.2 wt.-% of phytantriol in a physiological serum with 0.85 wt.-% NaCl supplemented with 10 wt.-% ethanol was prepared. A control was also prepared under sterile conditions based on a serum with 0.85 wt.-% NaCl and 10 wt.-% ethanol.
(§2) The control as well as the phytantriol solution were deposed in 96-deep well plates (1.6 ml/well). The wells were contaminated with the respective bacterial or the fungal strains as outlined in table 1 at 2.5*10^5 to 5.6*10^5 cfu/ml for the bacteria and 1*10^4 to 2.5*10^4 cfu/ml for the fungi to obtain the initial contamination as outlined in table 1. After the contamination, each well was thoroughly mixed to ensure a homogeneous distribution of the microorganism. Then each plate was incubated at 22° C. for 24h. The counting of the (remaining) population was carried out 24h after contamination.

Assay [2] concerns S. epidermidis. In kind it is cell-based, Staphylococcus epidermidis. The protocol:
as §1, §2

The subject of assay [3] is M. furfur. In kind it is cell-based, Malassezia furfur. The protocol: as §1, §2
In assay [4] the test system is A. brasiliensis. In kind it is cell-based, Aspergillus brasiliensis. The protocol:
as §1, §2

Assay [5] deals with S. aureus. The format is cell-based, Staphylococcus aureus. The procedure: as §1, §2
The test system of assay [6] is C. albicans. The format is cell-based, Candida albicans. The procedure: as §1, §2

`CC(C)CCCC(C)CCCC(C)CCCC(C)(O)C(O)CO` (stereo not drawn) [Phytantriol, 3,7,11,15-tetramethyl-hexadecane-1,2,3-triol]: the “colony counts 24 h” value is listed as 28000 cfu/ml in assay [1] (0.2 wt.-% phytantriol in 0.85 wt.-% NaCl serum with 10 wt.-% ethanol, 22° C., 24 h after contamination, 0 h count 310000, control 24 h 30000); 0 cfu/ml in assay [2] (0.2 wt.-% phytantriol in 0.85 wt.-% NaCl serum with 10 wt.-% ethanol, 22° C., 24 h after contamination, 0 h count 560000, control 24 h 28000); 0 cfu/ml in assay [3] (0.2 wt.-% phytantriol in 0.85 wt.-% NaCl serum with 10 wt.-% ethanol, 22° C., 24 h after contamination, 0 h count 4000, control 24 h 775); 10 cfu/ml in assay [4] (0.2 wt.-% phytantriol in 0.85 wt.-% NaCl serum with 10 wt.-% ethanol, 22° C., 24 h after contamination, 0 h count 10000, control 24 h 1000); 0 cfu/ml in assay [5] (0.2 wt.-% phytantriol in 0.85 wt.-% NaCl serum with 10 wt.-% ethanol, 22° C., 24 h after contamination, 0 h count 250000, control 24 h 280000); 1000 cfu/ml in assay [6] (0.2 wt.-% phytantriol in 0.85 wt.-% NaCl serum with 10 wt.-% ethanol, 22° C., 24 h after contamination, 0 h count 25000, control 24 h 5000). Further, the antimicrobial effect entry in assay [1] (against Propionibacterium acnes, 0.2 wt.-%, 24 h) is recorded as “significant antimicrobial effect”; in assay [2] (against Staphylococcus epidermidis, 0.2 wt.-%, 24 h), “significant antimicrobial effect”; in assay [3] (against Malassezia furfur, 0.2 wt.-%, 24 h), “significant antimicrobial effect”; in assay [4] (against Aspergillus brasiliensis, 0.2 wt.-%, 24 h) it was “significant antimicrobial effect”; in assay [5] (against Staphylococcus aureus, 0.2 wt.-%, 24 h), “significant antimicrobial effect”; in assay [6] (against Candida albicans, 0.2 wt.-%, 24 h) it was “significant antimicrobial effect”.
